Experimental data reported in PubChem BioAssay AID330 (DTP/NCI, 2004).
“And” between values parts separate entries of the source, which are not always exact repeats. Equal entries are not always repeated. Toxic doses and inconclusive results are not listed. How the source made its calls: active means survival T/C of 150% or more; inactive means T/C below 125% in these data.

Tested on: P388 leukemia ip, CD2F1 mice, survival T/C
Test: NCI In Vivo Anticancer Drug Screen. Data for tumor model P388 Leukemia (intraperitoneal) in CD2F1 (CDF1) mice
Details: endpoint: median survival time, higher = longer survival
Method in brief: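 Mice carrying the transplanted tumor received test compound or vehicle. Survival was recorded in each group, and the value is the treated-group measurement divided by that of the vehicle-treated control group.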

[1] = dose: 50.0 mg/kg/injection, schedule: Q01DX009 (ip), vehicle: saline with Tween-80
[2] = dose: 100.0 mg/kg/injection, schedule: Q01DX009 (ip), vehicle: saline with Tween-80
[3] = dose: 200.0 mg/kg/injection, schedule: Q01DX009 (ip), vehicle: saline with Tween-80
[4] = dose: 50.0 mg/kg/injection, schedule: Q01DX009 (ip), vehicle: Klucel (hydroxypropylcellulose) (HPC)
[5] = dose: 100.0 mg/kg/injection, schedule: Q01DX009 (ip), vehicle: Klucel (hydroxypropylcellulose) (HPC)
[6] = dose: 60.0 mg/kg/injection, schedule: Q01DX005 (ip), vehicle: saline with Tween-80
[7] = dose: 120.0 mg/kg/injection, schedule: Q01DX005 (ip), vehicle: saline with Tween-80
[8] = dose: 50.0 mg/kg/injection, schedule: Q01DX005 (ip), vehicle: saline with Tween-80

Measured: T/C

c1c2c(cc3c1OCN(C1CC1)C3)OCN(C1CC1)C2
inactive: [1] 94 % of control | [2] 90 % of control | [3] 96 % of control

CC(=O)c1c(-c2ccccc2)noc1-c1ccccc1
inactive: dose: 100.0 mg/kg/injection, schedule: Q04DX003 (ip), vehicle: saline 102 % of control | dose: 200.0 mg/kg/injection, schedule: Q04DX003 (ip), vehicle: saline 102 % of control | dose: 400.0 mg/kg/injection, schedule: Q04DX003 (ip), vehicle: saline 101 % of control

CCC(=O)[O-].CCC(=O)[O-].CCC(=O)[O-].CCC(=O)[O-].O=S(=O)(O)O.[Re].[Re]
inactive: dose: 72.0 mg/kg/injection, schedule: Q01DX009 (ip), vehicle: saline 107 % of control | dose: 103.0 mg/kg/injection, schedule: Q01DX009 (ip), vehicle: saline 100 % of control | dose: 147.0 mg/kg/injection, schedule: Q01DX009 (ip), vehicle: saline 102 % of control | dose: 171.5 mg/kg/injection, schedule: Q01DX009 (ip), vehicle: suspension in saline 109 % of control | dose: 210.0 mg/kg/injection, schedule: Q01DX009 (ip), vehicle: saline 108 % of control | dose: 245.0 mg/kg/injection, schedule: Q01DX009 (ip), vehicle: suspension in saline 120 % of control | dose: 300.0 mg/kg/injection, schedule: Q01DX009 (ip), vehicle: saline 91 % of control

C#CC(CC)OC(=O)c1ccc([N+](=O)[O-])cc1 (stereo unspecified)
inactive: [4] 103 % of control | [5] 103 % of control | dose: 200.0 mg/kg/injection, schedule: Q01DX009 (ip), vehicle: Klucel (hydroxypropylcellulose) (HPC) 91 % of control

CC(C)c1nccn1Cc1ccc(Cl)cc1Cl
inactive: [6] 88 % of control | [7] 99 % of control

Cc1cc2c(-c3ccccc3)c3cc(C)c(N)cc3nc2cc1N
inactive: dose: 6.25 mg/kg/injection, schedule: Q01DX005 (ip), vehicle: Klucel (hydroxypropylcellulose) (HPC) 101 % of control | dose: 12.5 mg/kg/injection, schedule: Q01DX005 (ip), vehicle: Klucel (hydroxypropylcellulose) (HPC) 100 % of control | dose: 25.0 mg/kg/injection, schedule: Q01DX005 (ip), vehicle: Klucel (hydroxypropylcellulose) (HPC) 99 % of control

Cc1cc(NC(=O)c2ccc(N=Nc3c(O)c(S(=O)(=O)O)cc4cc(S(=O)(=O)O)ccc34)cc2)ccc1N=Nc1ccc2cc(S(=O)(=O)O)cc(S(=O)(=O)O)c2c1
inactive: [8] 95 % of control | dose: 100.0 mg/kg/injection, schedule: Q01DX005 (ip), vehicle: saline with Tween-80 98 % of control | dose: 200.0 mg/kg/injection, schedule: Q01DX005 (ip), vehicle: saline with Tween-80 104 % of control

CC1c2ccccc2CC(CCN(C)C)c2ccccc21 (stereo unspecified)
inactive: dose: 6.25 mg/kg/injection, schedule: Q01DX005 (ip), vehicle: saline with Tween-80 101 % of control and 102 % of control and 106 % of control | dose: 12.5 mg/kg/injection, schedule: Q01DX005 (ip), vehicle: saline with Tween-80 101 % of control and 109 % of control (2×) | dose: 25.0 mg/kg/injection, schedule: Q01DX005 (ip), vehicle: saline with Tween-80 109 % of control and 97 % of control | [8] 110 % of control

Cc1cc(NC(=O)C(=O)CC(=O)c2ccc(Cl)s2)no1
inactive: dose: 100.0 mg/kg/injection, schedule: Q04DX002 (ip), vehicle: saline with Tween-80 99 % of control | dose: 200.0 mg/kg/injection, schedule: Q04DX002 (ip), vehicle: saline with Tween-80 104 % of control | dose: 400.0 mg/kg/injection, schedule: Q04DX002 (ip), vehicle: saline with Tween-80 107 % of control

Oc1ccc2c(c1)[C@]13CCCCC1[C@H](C2)N(Cc1ccoc1)CC3 (stereo partly specified)
inactive: dose: 25.0 mg/kg/injection, schedule: Q01DX009 (ip), vehicle: saline 97 % of control | dose: 50.0 mg/kg/injection, schedule: Q01DX009 (ip), vehicle: saline 99 % of control and 103 % of control | dose: 100.0 mg/kg/injection, schedule: Q01DX009 (ip), vehicle: saline 99 % of control

O=C1OCc2c[n+]([O-])ccc21
inactive: dose: 20.0 mg/kg/injection, schedule: Q01DX005 (ip), vehicle: Klucel (hydroxypropylcellulose) (HPC) 96 % of control | dose: 40.0 mg/kg/injection, schedule: Q01DX005 (ip), vehicle: Klucel (hydroxypropylcellulose) (HPC) 118 % of control | dose: 80.0 mg/kg/injection, schedule: Q01DX005 (ip), vehicle: Klucel (hydroxypropylcellulose) (HPC) 91 % of control

CN(C)C(=O)c1cccc2ccc[n+](C)c12
inactive: dose: 78.0 micrograms/kg/injection, schedule: Q04DX002 (ip), vehicle: saline 98 % of control | dose: 156.0 micrograms/kg/injection, schedule: Q04DX002 (ip), vehicle: saline 99 % of control | dose: 312.0 micrograms/kg/injection, schedule: Q04DX002 (ip), vehicle: saline 98 % of control

Cc1ccc(OP(=O)(Oc2ccc(C)cc2)Oc2ccc(C)cc2)cc1.Cc1ccc(OP(=O)(Oc2ccc(C)cc2)Oc2ccc(C)cc2)cc1.Cc1ccc(OP(=O)(Oc2ccc(C)cc2)Oc2ccc(C)cc2)cc1.Cc1ccc(OP(=O)(Oc2ccc(C)cc2)Oc2ccc(C)cc2)cc1.[O-][Cl+3]([O-])([O-])O.[Zn+2]
inactive: dose: 100.0 mg/kg/injection, schedule: Q04DX003 (ip), vehicle: Klucel (hydroxypropylcellulose) (HPC) 98 % of control | dose: 200.0 mg/kg/injection, schedule: Q04DX003 (ip), vehicle: Klucel (hydroxypropylcellulose) (HPC) 102 % of control

O=C1NC(=O)C2(CCc3ccccc3C2)N1 (stereo unspecified)
inactive: [1] 100 % of control | [2] 100 % of control | [3] 96 % of control | dose: 400.0 mg/kg/injection, schedule: Q01DX009 (ip), vehicle: saline with Tween-80 97 % of control

CC(C)=CCc1c2c(c(O)c3c(=O)c(-c4ccc(O)cc4O)coc13)C=CC(C)(C)O2
inactive: dose: 25.0 mg/kg/injection, schedule: Q01DX009 (ip), vehicle: saline with Tween-80 104 % of control | [1] 102 % of control | [2] 104 % of control | [3] 99 % of control

c1cc2c3c(cccc3c1)NN=N2
inactive: dose: 60.0 mg/kg/injection, schedule: Q01DX005 (ip), vehicle: Klucel + Tween-80 106 % of control | dose: 120.0 mg/kg/injection, schedule: Q01DX005 (ip), vehicle: Klucel + Tween-80 99 % of control | dose: 240.0 mg/kg/injection, schedule: Q01DX005 (ip), vehicle: Klucel + Tween-80 96 % of control

CCCN(CCC)C(=O)C(c1ccccc1)C(O)(c1ccccc1)c1ccccc1 (stereo unspecified)
inactive: dose: 50.0 mg/kg/injection, schedule: Q01DX005 (ip), vehicle: Klucel (hydroxypropylcellulose) (HPC) 100 % of control | dose: 100.0 mg/kg/injection, schedule: Q01DX005 (ip), vehicle: Klucel (hydroxypropylcellulose) (HPC) 95 % of control | dose: 200.0 mg/kg/injection, schedule: Q01DX005 (ip), vehicle: Klucel (hydroxypropylcellulose) (HPC) 92 % of control

CC(=O)c1oc2cc([N+](=O)[O-])c3ccccc3c2c1C
inactive: [6] 107 % of control | [7] 98 % of control | dose: 240.0 mg/kg/injection, schedule: Q01DX005 (ip), vehicle: saline with Tween-80 88 % of control

COC1OC(C)C(=O)C2OC12 (stereo unspecified)
inactive: [4] 112 % of control | [5] 116 % of control
